Measured values published in publication PMC10002220, “In Vivo Reversal of P-Glycoprotein-Mediated Drug Resistance in a Breast Cancer Xenograft and in Leukemia Models Using a Novel, Potent, and Nontoxic Epicatechin EC31” (International Journal of Molecular Sciences, 2023).
Like-named read-outs stand apart in the source and are kept apart here.

Legend:
[1] = Pharmacokinetics of methylated catechin derivatives in plasma; assay type: in vivo, BALB/c mice; settings: BALB/c, mouse; for AUC(0-inf): read-out: AUC0-infinity (converted)
Method: Figure 4 Pharmacokinetics of methylated catechin derivatives and their effects on the PK of PTX. BALB/c mice were i.v. injected with 10 mg/kg or i.p. injected with 30 mg/kg of modulators. At 10, 30, 60, 180, 420, 840, and 1080 min postadministration, animals were sacrificed to collect their blood, and then the plasma concentration of modulator was determined using UPLC-MS/MS. The % of bioavailability of each modulator injected through i.p. injection route was calculated by comparing it to its plasma level when injected via i.v. injection. […] (E) Pharmacokinetic (PK) profiles of 4 potent methylated catechin derivatives were summarized. (F) The effect of modulators (GC51, EC31, or C25) on the PK of PTX was firstly determined through i.p. injection of modulator at 30 mg/kg 1 h prior to i.v. injection of 12 mg/kg PTX. At 10, 30, 60, 120, 240, and 420 min postadministration of PTX, animals were sacrificed. Plasma level of PTX was quantified through LC/MSMS. The dashed line indicates the corresponding EC50 of modulator in vitro for reversing PTX resistance. […] There were 3 mice at each time point. All pharmacokinetic parameters were calculated with the pharmacokinetic software Summit® PK solution. Two-tailed test was conducted for the AUC value of PTX alone and cotreatment. […] N.S. = not significant. / = not applicable.
In group 1, BALB/c mice were injected intravenously (i.v.) with 10 mg/kg of modulator, and their blood was collected at 10, 30, 60, 120, 240, and 480 min postadministration. In group 2, BALB/c mice were injected intraperitoneally (i.p.) with 30 mg/kg of modulator, and their blood was collected at 10, 30, 60, 180, 420, 840, and 1080 min postadministration.
The pharmacokinetics of PTX was studied with or without the coadministered modulator. PTX (12 mg/kg i.v.) alone was injected into the BALB/c mice. For the combination study, modulator (30 mg/kg i.p.) was injected 1 h before injecting PTX (12 mg/kg i.v.). The blood was collected at 10, 30, 60, 120, 240, and 420 min after PTX administration. Blood samples were spun at 14,000 rpm for 10 min at 4 °C to collect plasma supernatant. Plasma concentration of methylated catechin derivatives or PTX was determined through UPLC-QQQ-MS as described in Section 4.9. Pharmacokinetic parameters were analyzed with PK Solutions 2.0 (Summit Research Service, Ashland, OH, USA).

[2] = test system: K562/P-gp leukemia; test: In vivo efficacy in reversing DOX resistance in human leukemia K562/P-gp model; design: species or system NOD/SCID mice
Method: Irradiated BDF1 mice were i.p. inoculated with P388ADR cells, which caused mouse leukemia. Irradiated NOD/SCID mice were i.v. inoculated with K562/P-gp cells, which caused human leukemia. The mice were randomized and treated with (1) control treatment (no treatment), (2) DOX alone, and (3) EC31 + DOX. Treatments were given as indicated by the arrows. The number of mice deaths in each treatment group was recorded every day. (A) The percent survival of mice infected with P388ADR. (B) The percent survival of mice infected with K562/P-gp. The mice median survival days and the increased lifespan (ILS) were analyzed with Log-rank (Mantel–COX) test in Prism 5.0. Student’s paired t test was conducted as indicated. ** represents p < 0.01, and *** represents p < 0.001. N.S. = not significant.
The mice were randomly distributed into 3 groups: (1) control group (no treatment), (2) DOX (0.9 mg/kg i.v.) alone, and (3) cotreatment with EC31 (30 mg/kg i.p.) being injected 1 h prior to DOX (0.9 mg/kg i.v.) administration. EC31 and DOX were injected on days 7, 11, 19, 23, and 27. Before each treatment, 0.2 mg/mL of DOX was freshly prepared using PBS. Mice survival and body weight were monitored during the study period.

[3] = target: T1, P-gp (Homo sapiens, UniProt P08183); test: EC50 for reversing drug resistance in LCC6MDR cells (cell proliferation assay); settings: for EC50: EC50 for Reversing MDR, LCC6MDR
Source text: EC50 was defined as the concentration at which the modulator can reduce the IC50 of an anticancer drug by half in the P-gp-overexpressing cell lines. […] The P-gp-modulating activity of methylated catechin derivatives was further studied by measuring the EC50. […] Three P-gp-overexpressing cell lines were employed, including breast cancer cell line LCC6MDR, mouse leukemia cell line P388ADR, and human leukemia cell line K562/P-gp. The anticancer drugs tested included DOX, PTX, and VCR. All values were presented as mean ± standard error of mean. N = 3–6 independent experiments.
About 6500 cells of LCC6MDR or 10,000 cells of P388ADR or K562/P-gp were seeded to each well of 96-well plate and were then incubated at 37 °C overnight. […] Cell viability was determined using CellTiter 96 AQueous Assay (Promega, Madison, WI, USA, #G1111) as reported previously [38]. The % of cell survival, IC50 of anticancer drugs towards the cell line, and EC50 of modulators were analyzed using nonlinear regression in Prism 5.0.

[4] = target: T1, P-gp; design: expressed in transfected cells; host or cells: MDA435/LCC6MDR (human breast cancer line, gift of Dr. Robert Clarke); settings: Cpds at 1 μM; IC50 of PTX without/with modulator; cited from earlier work
[5] = EC31 30 mg/kg i.p. + DOX 0.9 mg/kg i.v.

T1 sequence (P08183 whole entry): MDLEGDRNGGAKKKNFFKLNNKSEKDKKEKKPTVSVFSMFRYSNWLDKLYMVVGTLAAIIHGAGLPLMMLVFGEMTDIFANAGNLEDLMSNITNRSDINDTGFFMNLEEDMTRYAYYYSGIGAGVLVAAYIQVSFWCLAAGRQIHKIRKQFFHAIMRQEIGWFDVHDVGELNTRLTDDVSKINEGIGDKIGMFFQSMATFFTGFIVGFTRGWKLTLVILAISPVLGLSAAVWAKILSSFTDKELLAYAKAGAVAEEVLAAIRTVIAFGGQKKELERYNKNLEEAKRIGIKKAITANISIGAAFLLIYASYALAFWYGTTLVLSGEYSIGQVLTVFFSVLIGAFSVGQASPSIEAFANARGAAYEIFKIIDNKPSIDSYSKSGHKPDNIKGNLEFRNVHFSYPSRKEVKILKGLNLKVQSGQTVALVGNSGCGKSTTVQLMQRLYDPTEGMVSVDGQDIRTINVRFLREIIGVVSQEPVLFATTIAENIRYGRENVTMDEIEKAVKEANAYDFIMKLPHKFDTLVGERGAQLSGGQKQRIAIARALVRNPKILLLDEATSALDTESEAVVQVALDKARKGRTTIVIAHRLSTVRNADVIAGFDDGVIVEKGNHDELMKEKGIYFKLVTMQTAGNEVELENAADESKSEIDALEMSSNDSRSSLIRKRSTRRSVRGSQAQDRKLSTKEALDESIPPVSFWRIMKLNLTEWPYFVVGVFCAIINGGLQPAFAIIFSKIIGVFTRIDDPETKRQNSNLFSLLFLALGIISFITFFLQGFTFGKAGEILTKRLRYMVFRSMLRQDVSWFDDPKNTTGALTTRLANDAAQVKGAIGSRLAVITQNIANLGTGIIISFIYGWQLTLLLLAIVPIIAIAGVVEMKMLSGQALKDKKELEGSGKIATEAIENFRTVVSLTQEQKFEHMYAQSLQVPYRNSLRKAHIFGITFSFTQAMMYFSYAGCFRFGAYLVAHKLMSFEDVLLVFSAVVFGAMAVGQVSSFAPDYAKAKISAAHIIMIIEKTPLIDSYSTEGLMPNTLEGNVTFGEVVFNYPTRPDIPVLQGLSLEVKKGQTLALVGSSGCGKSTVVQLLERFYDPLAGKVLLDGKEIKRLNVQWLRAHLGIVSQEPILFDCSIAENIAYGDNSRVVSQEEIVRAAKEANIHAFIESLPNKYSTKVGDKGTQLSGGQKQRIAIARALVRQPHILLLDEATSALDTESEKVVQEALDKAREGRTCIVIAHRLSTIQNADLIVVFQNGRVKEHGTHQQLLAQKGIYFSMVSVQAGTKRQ

## COc1cc(OC)c2c(c1)O[C@H](c1ccc(OC)c(OC)c1)[C@H](OC(=O)c1ccc(F)c(NC(=O)c3cc(OC)c(OC)c(OC)c3)c1)C2 [EC31]
[1]; ip, 30 mg/kg
  AUC(0-t): 17800 ng·h/mL
  Cmax: 5610 ng/mL
  Tmax: 1 h
  half-life: 3.33 h
  AUC(0-inf): 18400 ng·h/mL
[1]; iv, 10 mg/kg
  AUC(0-t): 7240 ng·h/mL
  half-life: 0.912 h
  AUC(0-inf): 7290 ng·h/mL
[2]; [5]
  median survival time: 37.0 days
  prolongation of animal survival compared to DOX alone: 5 days
[2]; EC31 30 mg/kg i.p. + DOX 0.9 mg/kg i.v. compared to DOX alone
  ILS% (increase in lifespan): 15.6%
[3]; DOX Resistance, concentration that reduces IC50 of DOX by half
  EC50: 159 ± 21 nM
[3]; PTX Resistance, concentration that reduces IC50 of PTX by half
  EC50: 94 ± 21 nM
[3]; reversing PTX resistance in LCC6MDR
  fold lower EC50 than that of verapamil: about 4.7 fold
[4]
  LCC6MDR P-gp-modulating activity RF (relative fold): 69.3
